In paper PMC3633919, “Identification and Characterization of Pheromone Receptors and Interplay between Receptors and Pheromone Binding Proteins in the Diamondback Moth, Plutella xyllostella” (PLoS ONE, 2013):

What was measured:
[1] = biological target: T1, PxylOR1/PxylOrco (Plutella xylostella, UniProt N0A395); assay: two-electrode voltage clamp, Xenopus oocytes; assay type: cell-based
T1 construct: full-length untagged ORF 1269 bp (422 residues); pSP64T cRNA co-injected with PxylOrco cRNA in Xenopus laevis oocytes; with Odorant receptor coreceptor
T1 sequence (N0A395 1-422): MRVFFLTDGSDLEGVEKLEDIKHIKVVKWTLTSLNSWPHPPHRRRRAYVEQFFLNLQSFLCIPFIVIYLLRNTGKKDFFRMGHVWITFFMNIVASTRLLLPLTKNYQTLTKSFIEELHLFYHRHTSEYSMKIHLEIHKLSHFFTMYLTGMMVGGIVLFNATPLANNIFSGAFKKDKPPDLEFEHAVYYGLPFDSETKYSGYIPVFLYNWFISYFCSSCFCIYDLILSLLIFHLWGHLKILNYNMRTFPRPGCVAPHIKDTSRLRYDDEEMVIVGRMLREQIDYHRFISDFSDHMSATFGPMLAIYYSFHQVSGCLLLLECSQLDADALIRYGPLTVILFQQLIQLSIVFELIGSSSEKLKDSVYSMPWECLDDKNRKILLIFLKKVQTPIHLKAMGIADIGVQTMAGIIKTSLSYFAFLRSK
T1 sequence (D0EZE1 1-471 partner): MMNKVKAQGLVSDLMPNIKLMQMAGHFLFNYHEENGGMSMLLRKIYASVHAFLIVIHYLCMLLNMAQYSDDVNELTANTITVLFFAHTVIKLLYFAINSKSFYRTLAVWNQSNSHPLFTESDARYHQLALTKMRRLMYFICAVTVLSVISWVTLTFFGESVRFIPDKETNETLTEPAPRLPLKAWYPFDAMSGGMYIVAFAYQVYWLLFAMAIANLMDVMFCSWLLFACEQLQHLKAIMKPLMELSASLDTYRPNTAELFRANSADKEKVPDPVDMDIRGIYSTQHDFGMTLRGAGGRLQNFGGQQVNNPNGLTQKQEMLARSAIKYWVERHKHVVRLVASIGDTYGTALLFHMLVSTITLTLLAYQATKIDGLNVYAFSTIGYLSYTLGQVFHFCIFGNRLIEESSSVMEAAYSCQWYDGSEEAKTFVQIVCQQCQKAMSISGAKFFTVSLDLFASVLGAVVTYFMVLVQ

[2] = biological target: T2, PxylOR4/PxylOrco (Plutella xylostella, UniProt M9ZZM3); assay: two-electrode voltage clamp, Xenopus oocytes; assay type: cell-based
T2 construct: full-length untagged ORF 1209 bp (402 residues); pSP64T cRNA co-injected with PxylOrco cRNA in Xenopus laevis oocytes; with Odorant receptor coreceptor
T2 sequence (M9ZZM3 1-402): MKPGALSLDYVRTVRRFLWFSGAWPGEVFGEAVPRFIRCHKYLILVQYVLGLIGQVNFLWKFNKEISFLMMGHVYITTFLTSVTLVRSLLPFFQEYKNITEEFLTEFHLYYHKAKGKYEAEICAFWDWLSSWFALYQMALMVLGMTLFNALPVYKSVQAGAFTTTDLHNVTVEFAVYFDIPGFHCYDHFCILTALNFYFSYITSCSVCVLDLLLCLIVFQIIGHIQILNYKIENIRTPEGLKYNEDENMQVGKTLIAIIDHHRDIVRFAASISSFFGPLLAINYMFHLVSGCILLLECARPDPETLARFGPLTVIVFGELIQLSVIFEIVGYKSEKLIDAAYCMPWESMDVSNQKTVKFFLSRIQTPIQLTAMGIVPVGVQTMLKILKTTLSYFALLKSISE
T2 sequence (D0EZE1 1-471 partner): T1 sequence (D0EZE1 1-471 partner)

## CCCC/C=C\CCCCCCCCCC=O [Z11-16:Ald, (Z)-11-hexadecenal]
[1]
  EC50: 23900 nM

## CCCC/C=C\CCCCCCCCOC(C)=O [Z9-14:Ac, (Z)-9-tetradecenyl acetate]
[2]
  EC50: 243 nM

## C/C=C/C/C=C\CCCCCCCCOC(C)=O [Z9,E12-14:Ac]
[2]
  EC50: 1940 nM
